Experimental data published in patent US4695647A, “Aromatic derivatives of 13-azaprostanoic acid” (Drug Science Foundation, priority 1984, dated 1987).
“Also recorded” adds a separate entry of the source. Like-named read-outs stand apart in the source and are kept apart here.

Columns and labels:
[1] = system: human platelets; test: Inhibition of U46619-induced human platelet aggregation; format: cell-based; details: for IC50: Homo sapiens, Platelet, 1 min
Description: Platelet rich plasma was prepared from four healthy, normal volunteers using standard techniques.
Platelets were aggregated with U46619 (0.5 to 1.0 μM) to produce an
average % aggregation at one minute of 61.3 ± 3.1. The ID50 value
were calculated based on the inhibition of U46619 induced aggregation one
minute after its addition.
Platelets were aggregated with U46619 (0.09 to 0.65 μM) to produce an
average % aggregation at one minute of 47 ± 3. The ID50 values
The potency of PTA-OH and PTA-OM for antagonism of U46619 induced human platelet aggregation was determined as described above.

[2] = system: endotoxic shock; test: Protection against endotoxic shock (Salmonella endotoxin); format: in vivo, young male Long-Evans rats
Text: Based on the protective biological response observed and the absence of change in plasma thromboxane levels, it is concluded that trans-13 APT is a thromboxane receptor antagonist.

[3] = system: platelet aggregation; details: 13-APA itself, stated as background for comparison; cited from earlier work
[4] = Solubility; format: physicochemical
[5] = system: platelet aggregation; test: U46619 and arachidonic acid-induced platelet aggregation; format: cell-based, human
Description: Compound A was prepared in a manner analogous to 13 APA itself, i.e., by borohydride reduction of the Schiff base obtained from the reaction of tyramine and ethyl-2-oxo-cyclopentane-heptanoate. This reaction produces about equal amounts of the cis and trans ethyl esters, which were separated on preparative silica gel TLC and subsequently hydrolyzed to the free acids by refluxing in aqueous NaOH.

[6] = system: canine saphenous veins; test: Antagonism of vascular smooth muscle contraction in canine saphenous veins; format: cell-based
[7] = Table I, U46619 0.5 to 1.0 μM, average % aggregation at one minute 61.3 ± 3.1, indomethacin 10 μM, one minute preincubation, platelet rich plasma, read-out: ID50 (the source's name)
[8] = Table 2, U46619 0.09 to 0.65 μM, average % aggregation at one minute 47 ± 3, indomethacin 10 μM, one minute preincubation, read-out: ID50 (the source's name)
[9] = 30 mg/kg i.p., vs vehicle pretreated animals
[10] = pinane analogs, determined as described above, read-out: ID50 (antagonism of U46619 induced human platelet aggregation)

In the case of CCCCCCCN[C@H]1CCC[C@H]1CCCCCCC(=O)O (relative stereo) [13-cis-azaprostanoic acid, reference compound], the IC50 [1, 7] is reported as 14.8 ± 2.2 µM.
With O=C(O)CCCCCC[C@H]1CCC[C@H]1NCC(O)c1ccc(O)c(I)c1 (relative stereo) [13-cis-iodo APO] the IC50 [1, 8] was 9.8 ± 1.3 µM.
In the case of CCCCCCCN[C@@H]1CCC[C@H]1CCCCCCC(=O)O (relative stereo) [13-trans-azaprostanoic acid, reference compound], the IC50 [1, 7] is reported as 13.6 ± 1.9 µM.
In the case of O=C(O)CCCCCC[C@@H]1CCC[C@@H]1NCCc1ccc(O)cc1 (relative stereo) [Compound 13-cis-APT, 7-(2-p-hydroxphenethylamino-cyclopentyl)-heptanoic acid], the IC50 [1, 7] is reported as 17.6 ± 4.4 µM.
For O=C(O)CCCCCC[C@@H]1CCC[C@H]1NCCc1ccc(O)cc1 (relative stereo) [Compound 13-trans-APT, 7-(2-p-hydroxphenethylamino-cyclopentyl)-heptanoic acid], the “plasma thromboxane B2 levels” value ([2]; 30 mg/kg i.p., 30 minutes and four hours after endotoxin, vs vehicle) was “elevated to the same degree”, the 6-keto-PGF1α levels [2, 9] was “significantly lower” and the “endotoxic shock as measured by hypoglycemia, thrombocytopenia and tissue infarct effects” value [2, 9] was “less subject to endotoxic shock”. For the same compound, the “protection against endotoxic shock” value ([2]; 30 mg/kg, intraperitoneal pretreatment, endotoxin intravenously) was “protected against endotoxic shock”, the “protection against pathophysiologic sequelae of S. enteritidis endotoxemia” value ([2]; 30 mg/kg, rats) was “effective in protecting rats” and the IC50 [1, 7] was 9.9 ± 1.7 µM.
For CCCCCCCN[C@H]1CCC[C@@H]1CCCCCCC(=O)O [Compound 13-APA, 13-Azaprostanoic acid], the “relative potency of isomers” value [3] is given as “much more potent as the trans form”.
Work on O=C(O)CCCCCC[C@@H]1CCC[C@@H]1NCC(O)c1ccc(O)cc1 (stereo partly drawn) [Compound 13-cis-APO, 7-(2-p-hydroxyphenylethanolamino-cyclopentyl)-heptanoic acid] yielded an IC50 [1, 8] of 6.4 ± 0.7 µM and an IC50 [1, 7] of 16 ± 3.2 µM.
With O=C(O)CCCCCC[C@@H]1CCC[C@H]1NCC(O)c1ccc(O)cc1 (stereo partly drawn) [Compound 13-trans-APO, 7-(2-p-hydroxyphenylethanolamino-cyclopentyl)-heptanoic acid] the IC50 [1, 7] was 8.3 ± 1.4 µM and the solubility in ethanol [4] was “practically insoluble”.
In the case of O=C(O)CCCCCCC1CCCC1NCCc1ccc(O)cc1 (stereo not drawn) [Compound A, 7-(2-p-hydroxyphenethylamino-cyclopenthyl)-heptanoic acid], the “activity and relative potency of isomers in platelet aggregation” value [5] is reported as “the two isomers were active, with the trans more potent than the cis; also recorded: significantly more potent than the parent 13-APA”.
With CC1(C)C2CC(NCC(O)Cc3ccc(O)cc3)C(C/C=C\CCCC(=O)O)C1C2 (stereo not drawn) [PTA-OH, 13-aza-16-(p-hydroxyphenyl) pinane TxA2] the “relative potency as inhibitor of human platelet aggregation” value [1] was “more potent than 13-aza-16-(p-methoxyphenyl) pinane TxA2 (PTA-OM)” and the IC50 [1, 10] was 0.52 ± 0.07 µM.
With COc1ccc(CC(O)CNC2CC3CC(C2C/C=C\CCCC(=O)O)C3(C)C)cc1 (stereo not drawn) [PTA-OM, 13-aza-16-(p-methoxyphenyl) pinane TxA2] the IC50 [1, 10] was 1.56 ± 0.35 µM and the “relative potency as antagonist of vascular smooth muscle contraction” value [6] was “more potent than PTA-OH”.
CC1(C)C2CC(NCC(O)Cc3ccc(O)c(I)c3)C(C/C=C\CCCC(=O)O)C1C2 (stereo not drawn) [^127 I-PTA-OH] showed an IC50 [1, 10] of 0.38 ± 0.05 µM.
